Type in all cases: cell-based, mouse
Test [1] deals with single pre-antral follicle. Description: in vitro culturing of a single pre-antral follicle (growth, ovulation and maturation after ovulation induction). Particulars: for ovulation rate / growth of the follicle: single-follicle culturing, 10 ug/mL from day 5; for ovulation rate: 16 to 18 hours after ovulation induction, versus untreated single-follicle, FIG. 2; for growth of the follicle: fifth day compared with 13th day, versus untreated control (CTL), FIG. 1. The source says: (§1) Specifically, an ovary was separated from a 14-day old mouse and placed in HBSS (Hank's balanced salt solution) containing 10% bovine serum. Then, pre-antral follicles in an early developmental stage were mechanically separated using a 28-gauge syringe needle. At this time, degenerated pre-antral follicles were removed, and healthy pre-antral follicles were used for a pre-antral follicle culturing. One separated pre-antral follicle was used for a single-follicle culturing, and a cluster including two to four pre-antral follicles joined together was used for culturing a cluster of multiple follicles.
(§2) After 25 20 μl culture liquid droplets were made on each culture dish (Falcon 3000, BD Biosciences, 60×15 mm), the collected single pre-antral follicle, or the cluster of multiple follicles consisting of 2 to 4 joined pre-antral follicles were seeded to each droplet. Then, those follicles were cultured in a 5% CO2 incubator at 37° C. for about 2 weeks. The culture liquid used here is Opti-MEM medium (Invitrogen) including insulin, 5% bovine serum, recombinant follicle stimulating hormone (FSH, Gonal-F®, Merck Serono, 0.2 IU/mL) and recombinant luteinizing hormone (LH, Luveris®, Merck Serono, 0.1 IU/mL). The culture liquid was changed in half with new medium every two days. In culturing process, a follicle morphology was observed using an inverted microscope (TE-2000; Nikon).
(§3) In order to observe a follicle culturing effect based on a regulation of the angiotensin II receptor, the single pre-antral follicle and the cluster of multiple follicles were compared and analyzed by divided into 3 groups: control group, angiotensin II receptor agonist (CGP-42112, Sigma)-treated group, and angiotensin II receptor antagonist (Saralasin, Sigma)-treated group. Specifically, the single pre-antral follicle and the cluster of multiple follicles were treated with the angiotensin II receptor agonist or the angiotensin II receptor antagonist to have a concentration of 10 ug/mL from day 5 of culturing.
(§4) On the 12th day of the culturing, it was observed that the pre-antral follicle was matured into an antral follicle. Then, the antral follicle was treated with recombinant human […], rhCG, Ovidrel®, Merck Serono) of 1.5 IU/m and human epidermal growth factor (hEGF) of 5 ng/mL in order to induce ovulation. At 16 to 18 hours after the ovulation induction, ovulation rate and maturation rate were calculated.
Specifically, the ovulation rate was calculated by counting the number of follicles ovulated after administration of the human […] and the human epidermal growth factor among the seeded follicles, and the maturation rate was calculated by counting the number of ova in MII phase among the ovulated ova.
In order to investigate effect of angiotensin II in culturing a single-follicle, growth and maturation rates based on the treatment with angiotensin II receptor agonist or angiotensin II receptor antagonist were intended to be investigated. […] Further, ovulation rates were investigated by inducing ovulation in the cultured follicles.

Test [2] concerns cluster of multiple follicles. Kind of test: in vitro culturing of a cluster of multiple follicles (growth, follicle fluid, maturation rate). Particulars: for growth of the cluster of multiple follicles: cluster of two to four joined follicles, fifth day compared with 13th day.
From the text: as §1, §2, §3, §4
Specifically, the ovulation rate was calculated by counting the number of follicles ovulated after administration of the human […] and the human epidermal growth factor among the seeded follicles, and the maturation rate was calculated by counting the number of ova in MII phase among the ovulated ova. […]

Test [3] relates to mature follicle ovulated from cultured follicles. Description: in vitro fertilization of ova from cultured follicles and embryo observation. The method, then:
In vitro fertilization was performed to evaluate fertilization rates of the ova obtained by the induction of ovulation. Specifically, a mature follicle ovulated in HTF (human tubal fluid) medium in the 5% CO2 incubator at 37° C. was fertilized with a sperm collected from a 8 week old male C57BL6 mouse. When cell division occur or two pronuclei are seen and a second polar body is observed, the ovum is regarded as fertilized.
In order to further confirm the effect of the angiotensin II in culturing the cluster of multiple follicles, maturation rate and fertilization rate were intended to be checked. Mature follicles were ovulated by treating them with the angiotensin II receptor agonist and inducing the ovulation via the method of Example 1 to Example 5. Then, the ovulated mature follicles were fertilized with sperms.

For test [4], the system named is multiple follicles cultured collectively. Kind of test: culturing multiple follicles collectively (growth, follicle fluid). Particulars: multiple follicles collectively treated with agonist; bottom of FIG. 8.
From the text: as §1, with “follicles. […]” for “follicles.”
In order to observe a follicle culturing effect based on a regulation of the angiotensin II receptor, the single pre-antral follicle and the cluster of multiple follicles were compared and analyzed by divided into 3 groups: control group, angiotensin II receptor agonist (CGP-42112, Sigma)-treated group, and angiotensin II receptor antagonist (Saralasin, Sigma)-treated group. […]
On the 12th day of the culturing, it was observed that the pre-antral follicle was matured into an antral follicle. […] At 16 to 18 hours after the ovulation induction, ovulation rate and maturation rate were calculated. […]

Setting [5] is: 10 ug/mL from day 5, FIG. 3, FIG. 8 top.

This note sets out measurements from patent US20190127705A1, “METHOD FOR CULTURING MULTIPLE OVARIAN FOLLICLES BY USING ANGIOTENSIN II RECEPTOR AGONIST” (SEOUL NATIONAL UNIVERSITY R&DB FOUNDATION, priority 2016, published 2019).

“Also recorded” adds a separate entry of the source.

Turning to `CNCC(=O)N[C@@H](CCCN=C(N)N)C(=O)N[C@H](C(=O)N[C@@H](Cc1ccc(O)cc1)C(=O)N[C@H](C(=O)N[C@@H](Cc1cnc[nH]1)C(=O)N1CCC[C@H]1C(=O)N[C@@H](C)C(=O)O)C(C)C)C(C)C` [angiotensin II receptor antagonist, Saralasin], in test [1], the ovulation rate result is “not significantly different” and the “growth of the follicle” value is “growing at a level similar to a single-follicle (control group, CTL) that had not been treated”. Moreover, the “growth of the cluster of multiple follicles” value in test [2] (setting [5]) is on record as “did not grow simultaneously but fell into apoptosis during development”.

Turning to “CGP-42112 [angiotensin II receptor agonist]”, the “cleavage of an embryo” value in test [3] (after fertilizing matured follicles from agonist-treated cultures, FIG. 7) was “progression of cleavage of an embryo was observed”. In addition, the fertilization rates result in test [3] (single-follicle culturing compared with culturing of the cluster of multiple follicles, agonist treated, FIG. 6) was “no significant difference”. In test [1] (single-follicle culturing with agonist treatment, ova in MII phase among ovulated ova, FIG. 5), the maturation rate came out at 11%. Also, in test [1], the ovulation rate entry is “not significantly different” and the “growth of the follicle” value is “growing at a level similar to a single-follicle (control group, CTL) that had not been treated”. In addition, the “accumulation of the follicle fluid in the follicle” value in test [2] (cluster of multiple follicles, 10 ug/mL from day 5, FIG. 3, FIG. 8 top) is reported as “increased; also recorded: clearly observed in the all follicles”. For the same compound, the “growth of the cluster of multiple follicles” value in test [2] (setting [5]) is “growth of all follicles was significantly promoted; also recorded: significantly promoted to grow”. In test [2] (culturing of the cluster of multiple follicles with agonist treatment, ova in MII phase among ovulated ova, FIG. 5), this compound had a maturation rate of 26.8%. Also, in test [4], the “follicle fluid accumulation in the follicles” value is “almost no follicle fluid accumulation” and the “growth of the follicles” value is recorded as “all follicles promoted to grow but fell into apoptosis during development”.
